Data from patent US20070032502A1, “Quinazoline derivatives useful in cancer treatment” (Schering Corporation, priority 2005, published 2007).
Read-outs that look alike come from different tables or passages of the source.

Experiments:
[1] = test system: MB468; test: Proliferation assay (Calcein AM viability, 72 hours); format: cell-based
Method: This assay measures the growth suppression effects of small molecules in cells with mutant p53 vs. p53 null background. It uses Calcein AM to measure cellular viability. Cells (p53 null and mutant) are harvested and plated at 5000 cells per well in a 96-well tissue culture plate. The volume of cells in growth media is 100 µl. Serial dilutions (2× concentration) of compounds are then made and transferred to the plate of cells. The volume of compounds in the growth media is 100 μL. This dilution of compound with cells gives a 1× final dilution of compound (200 μL total volume). Plates are then incubated at 37° C. for 72 hours. Media is then poured off and Calcein AM is added at the appropriate concentration and the plates are incubated in the dark for 15 minutes and read for fluorescence. […] Compounds having EC50 values of 6 uM or higher have been assigned the letter “D”. These letter rating has been used throughout in the data tables above.

[2] = molecular target: GST-p53 DNA binding domain (aa 92-aa 312) (Homo sapiens, UniProt P04637); test: Scintillation Proximity Assay (SPA), displacement of 3H STANDARD COMPOUND; conditions: for remaining activity at 2 µg/mL: 1 h
Chain of GST-p53 DNA binding domain (aa 92-aa 312) (P04637 92-312): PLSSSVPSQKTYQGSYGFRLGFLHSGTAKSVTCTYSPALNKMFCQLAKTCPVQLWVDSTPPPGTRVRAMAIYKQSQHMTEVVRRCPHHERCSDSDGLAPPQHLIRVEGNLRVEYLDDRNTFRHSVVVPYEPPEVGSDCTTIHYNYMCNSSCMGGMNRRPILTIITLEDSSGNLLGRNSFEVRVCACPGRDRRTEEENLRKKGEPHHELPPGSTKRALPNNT
From the text: Most of the oncogenic mutants of the tumor suppressor protein p53 lack sequence specific DNA binding activity at physiological temperature due to conformational changes in the DNA binding domain. Small molecules and peptide which bind to the p53 DNA binding domain stabilize the conformation and restore DNA binding activity to mutant p53 protein (Science 286, 2507-2510, 1999; PNAS, 99, 937-942, 2002). Using ^3H STANDARD COMPOUND (which is ^3H of the compound #1 of the present invention; the * Carbon atom is the one labeled; structure shown below), [drawing 2234] a radio labeled small molecule which binds to p53, and the GST-p53 DNA binding domain (aa 92-aa 312), we have developed a quantitative screening assay. The assay is based on Scintillation Proximity Assay (SPA) technology, developed by Amersham Biosciences to measure molecular interactions. Briefly, the complex of GST-p53, ^3H STANDARD and Glutathione-SPA beads (Amersham Biosciences) are incubated with mixing for 1 hr at room temperature in the presence of the novel compounds to be screened. The signal is read on Microbeta. The compounds which have the ability to displace ^3H STANDARD COMPOUND are selected. Such molecules will stabilize the conformation and restore DNA binding activity to mutant p53 protein.
The above assay was used to determine the ability of the compounds of this invention to restore DNA binding activity to mutant p53 and the results for selected compounds have been given above in various tables.
A letter rating corresponding to % Residual total binding (T) @ 2 ug/mL of drug (i.e., compound of the present invention) from this assay have been assigned as follows: Compounds having % Residual T values of from 0% to less than 20% have been assigned the letter “A”. Compounds having % Residual T values of from 20% to less than 40% have been assigned the letter “B”. Compounds having % Residual T values of from 40% to less than 80% have been assigned the letter “C”. Compounds having % Residual T values of 80% or higher have been assigned the letter “D”. The exact % Residual T values @ 2 ug/mL for some illustrative compounds are shown below: […]

[3] = 2 ug/mL of drug, lower is better, read-out: % Residual T @ 2 ug/mL rating according to scintillation proximity assay (SPA)
[4] = 72 h, MB468 cells, 72 hours, read-out: PROLIFERATION ASSAY EC50 MB468
[5] = 2 ug/mL of drug, lower is better, read-out: SPA ASSAY % Residual T @ 2 ug/mL of drug (Average of)
[6] = MB468 cells, read-out: PROFILE-RATION ASSAY EC50 MB468
[7] = MB168 [sic], read-out: PROFILERATION ASSAY EC50 MB168
[8] = MB468, read-out: PROLIFERATION ASSAY EC50 MB468
[9] = read-out: SPA ASSAY (% residual T @ 2 ug/mL of drug)

CN(C)CCCNc1nc(CN2CCN(C(c3ccccc3)c3ccc(OC(F)(F)F)cc3)CC2)nc2ccccc12 (single isomer, unassigned; (+)) [11 isomer 1, (+)-N,N-DIMETHYL-N′-[2-{4-[PHENYL-(4-TRIFLUOROMETHOXYPHENYL)METHYL]-PIPERAZIN-1-YLMETHYL}QUINAZOLIN-4-YL]PROPANE-1,3-DIAMINE]
EC50 ([1]; 72 h, MB468 cells, 72 hours, read-out: EC50 rating according to the proliferation assay (MB468)): < 2 µM
remaining activity at 2 µg/mL [2, 3]: 20 to 40%

COc1ccc(/C=C/c2nc(NCCCN(C)C)c3ccccc3n2)cc1 [CP-31398, reference compound]
EC50 [1, 4]: 4.1 µM

CN(C)CCCNc1nc(CN2CCN(C(c3ccccc3)c3ccc(OC(F)(F)F)cc3)CC2)nc2ccccc12 (stereo not drawn) [Example 11-1]
EC50 ([1]; MB468 cells, 72 hours, read-out: PROLIFERATION ASSAY EC50 MB468): 1.4 µM
remaining activity at 2 µg/mL [2, 5]: 27.9%

CN(C)CCCNc1nc(CN2CCN(C(c3ccccc3)c3ccc(OC(F)(F)F)cc3)CC2)nc2ccccc12 (stereo not drawn) [Example 11-2]
EC50 [1, 4]: 1.6 µM

CN(C)CCCOc1nc(CN2CCN(C(c3ccc(Cl)cc3)c3ccc(Cl)cc3)CC2)nc2ccccc12 [Example 16, [3-(2-{4-[BIS-(4-CHLOROPHENYL)METHYL]PIPERAZIN-1-YLMETHYL}QUINAZOLIN-4-YLOXY)PROPYL]DIMETHYLAMINE]
EC50 ([1]; 72 h, read-out: EC50 rating according to the proliferation assay (MB468)): > 6 µM
remaining activity at 2 µg/mL ([2]; read-out: % Residual T @ 2 ug/mL rating according to scintillation proximity assay (SPA)): > 80%

COC(=O)[C@@H](Nc1nc(CN2CCN(C(=O)Nc3ccc(C(C)C)cc3)CC2)nc2ccccc12)C(C)C [Example 20-29]
EC50 ([1]; MB468 cells, read-out: PROLIFERATION ASSAY EC50 MB468): 4 to 6 µM
SPA Assay (% residual T @ 2 ug/mL of drug) ([2]; 2 ug/mL of drug): B (Compounds having % Residual T values of from 20% to less than 40% have been assigned the letter “B”)
remaining activity at 2 µg/mL [2, 5]: 39.5%

CN(C)CCCNc1nc(CN2CCN(Cc3cccc4cc[nH]c34)CC2)nc2ccccc12 [Example 25-29]
EC50 [1, 6]: 4 to 6 µM
SPA Assay (% residual T @ 2 ug/mL of drug) ([2]; 2 ug/mL of drug): B (Compounds having % Residual T values of from 20% to less than 40% have been assigned the letter “B”)
remaining activity at 2 µg/mL [2, 5]: 37.9%

CCC(C)(C)C1CCC(N2CCN(Cc3nc(NCCCN(C)C)c4ccccc4n3)CC2)C1 (stereo not drawn) [Example 25-73]
EC50 [1, 6]: 4 to 6 µM
SPA Assay (% residual T @ 2 ug/mL of drug) ([2]; 2 ug/mL of drug): C (Compounds having % Residual T values of from 40% to less than 80% have been assigned the letter “C”)

CCC(C)(C)C1CCC(N2CCN(Cc3nc(NCCCN(C)C)c4ccccc4n3)CC2)CC1 (stereo not drawn) [Example 25-90]
EC50 [1, 4]: 2 µM
EC50 [1, 6]: 2 to 4 µM
SPA Assay (% residual T @ 2 ug/mL of drug) ([2]; 2 ug/mL of drug): B (Compounds having % Residual T values of from 20% to less than 40% have been assigned the letter “B”)
remaining activity at 2 µg/mL [2, 5]: 38.1%

Cc1cc(C)c(NC(=O)N2CCN(Cc3nc(NCCCN(C)C)c4ccccc4n3)CC2)c(C)c1 [Example 28-4]
EC50 [1, 7]: 4 to 6 µM
SPA ASSAY (% Residual T @ 2 ug/mL of drug (average of)) ([2]; 2 ug/mL of drug): C (Compounds having % Residual T values of from 40% to less than 80% have been assigned the letter “C”)

CN(C)CCCNc1nc(CN2CCN(C(=O)Nc3ccc(C#N)cc3)CC2)nc2ccccc12 [Example 28-13]
EC50 [1, 7]: > 6 µM
SPA ASSAY (% Residual T @ 2 ug/mL of drug (average of)) ([2]; 2 ug/mL of drug): C (Compounds having % Residual T values of from 40% to less than 80% have been assigned the letter “C”)

COc1ccc(NC(=O)N2CCN(Cc3nc(NCCCN(C)C)c4ccccc4n3)CC2)cc1 [Example 28-20]
EC50 [1, 7]: > 6 µM
SPA ASSAY (% Residual T @ 2 ug/mL of drug (average of)) ([2]; 2 ug/mL of drug): B (Compounds having % Residual T values of from 20% to less than 40% have been assigned the letter “B”)
remaining activity at 2 µg/mL [2, 5]: 38%

CN(C)CCCNc1nc(CN2CCN(C(=O)Nc3ccc(Cl)c(Cl)c3)CC2)nc2ccccc12 [Example 28-39]
EC50 [1, 7]: 4 to 6 µM
SPA ASSAY (% Residual T @ 2 ug/mL of drug (average of)) ([2]; 2 ug/mL of drug): B (Compounds having % Residual T values of from 20% to less than 40% have been assigned the letter “B”)
remaining activity at 2 µg/mL [2, 5]: 29.9%

Clc1ccc(C(c2ccc(Cl)cc2)N2CCN(Cc3nc(N4CCOCC4)c4ccccc4n3)CC2)cc1 [Example 30-3]
EC50 [1, 8]: > 6 µM
remaining activity at 2 µg/mL [2, 9]: > 80%

OC1CCN(c2nc(CN3CCN(C(c4ccc(Cl)cc4)c4ccc(Cl)cc4)CC3)nc3ccccc23)C1 (stereo not drawn) [Example 30-4]
EC50 [1, 8]: > 6 µM
remaining activity at 2 µg/mL [2, 9]: > 80%

Clc1ccc(C(c2ccc(Cl)cc2)N2CCN(Cc3nc(N4CCCCCC4)c4ccccc4n3)CC2)cc1 [Example 30-5]
EC50 [1, 8]: 2 to 4 µM

CN(Cc1ccccc1)c1nc(CN2CCN(C(c3ccc(Cl)cc3)c3ccc(Cl)cc3)CC2)nc2ccccc12 [Example 30-11]
EC50 [1, 8]: > 6 µM

Clc1ccc(C(c2ccc(Cl)cc2)N2CCN(Cc3nc(N4CCc5ccccc5C4)c4ccccc4n3)CC2)cc1 [Example 30-12]
EC50 [1, 8]: > 6 µM

CN(CCc1ccccn1)c1nc(CN2CCN(C(c3ccc(Cl)cc3)c3ccc(Cl)cc3)CC2)nc2ccccc12 [Example 30-14]
EC50 [1, 8]: 4 to 6 µM
remaining activity at 2 µg/mL [2, 9]: > 80%

Clc1ccc(C(c2ccc(Cl)cc2)N2CCN(Cc3nc(N4CCN(c5ccccc5)CC4)c4ccccc4n3)CC2)cc1 [Example 30-15]
EC50 [1, 8]: 4 to 6 µM

Clc1ccc(C(c2ccc(Cl)cc2)N2CCN(Cc3nc(N4CCN(c5ncccn5)CC4)c4ccccc4n3)CC2)cc1 [Example 30-17]
EC50 [1, 8]: > 6 µM

CN(CCC1C=Nc2ccccc21)c1nc(CN2CCN(C(c3ccc(Cl)cc3)c3ccc(Cl)cc3)CC2)nc2ccccc12 (stereo not drawn) [Example 30-18]
EC50 [1, 8]: 2 to 4 µM

Clc1ccc(C(c2ccc(Cl)cc2)N2CCN(Cc3nc(N4CCC(Cc5ccccc5)CC4)c4ccccc4n3)CC2)cc1 [Example 30-19]
EC50 [1, 8]: 4 to 6 µM

Clc1ccc(C(c2ccc(Cl)cc2)N2CCN(Cc3nc(N4CCN(Cc5ccccc5)CC4)c4ccccc4n3)CC2)cc1 [Example 30-20]
EC50 [1, 8]: 2 to 4 µM

O=C(C1CCCO1)N1CCN(c2nc(CN3CCN(C(c4ccc(Cl)cc4)c4ccc(Cl)cc4)CC3)nc3ccccc23)CC1 (stereo not drawn) [Example 30-22]
EC50 [1, 8]: > 6 µM
remaining activity at 2 µg/mL [2, 9]: > 80%

CN(C)CC[C@H](Nc1nc(CN2CCN(C(c3ccc(Cl)cc3)c3ccc(Cl)cc3)CC2)nc2ccccc12)C(N)=O [Example 43, 2(S)-(−)-2-(2-{4-[BIS-(4-CHLOROPHENYL)METHYL]PIPERAZIN-1-YLMETHYL}QUINAZOLIN-4-YLAMINO)-4-DIMETHYLAMINOBUTYRAMIDE]
remaining activity at 2 µg/mL [2, 3]: 40 to 80%

CCOC(=O)[C@H](CCN(C)C)Nc1nc(CN2CCN(C(c3ccc(Cl)cc3)c3ccc(Cl)cc3)CC2)nc2ccccc12 [Example 44, 2(S)-(+)-2-(2-{4-[bis-(4-chlorophenyl)methyl]piperazin-1-ylmethyl}quinazoline-4-ylamino)-4-dimethylaminobutyric acid ethyl ester]
remaining activity at 2 µg/mL [2, 3]: 40 to 80%

CC(C)COC(=O)[C@H](CCCN(C)C)Nc1nc(CN2CCN(C(c3ccc(Cl)cc3)c3ccc(Cl)cc3)CC2)nc2ccccc12 [Example 45, 2(S)-(−)-2-(2-{4-[BIS-(4-CHLOROPHENYL)METHYL]PIPERAZIN-1-YLMETHYL}QUINAZOLIN-4-YLAMINO)-5-DIMETHYLAMINOPENTANOIC ACID ISOBUTYL ESTER]
remaining activity at 2 µg/mL [2, 3]: > 80%

CN(C)CCC[C@H](Nc1nc(CN2CCN(C(c3ccc(Cl)cc3)c3ccc(Cl)cc3)CC2)nc2ccccc12)C(N)=O [Example 46, 2(S)-(+)-2-(2-{4-[BIS-(4-CHLOROPHENYL)METHYL]PIPERAZIN-1-YLMETHYL}QUINAZOLIN-4-YLAMINO)-5-DIMETHYLAMINOPENTANAMIDE]
remaining activity at 2 µg/mL [2, 3]: > 80%

CN(C)CCCC[C@H](Nc1nc(CN2CCN(C(c3ccc(Cl)cc3)c3ccc(Cl)cc3)CC2)nc2ccccc12)C(N)=O [Example 47, 2(S)-(+)-2-(2-{4-[BIS-(4-CHLOROPHENYL)METHYL]PIPERAZIN-1-YLMETHYL}QUINAZOLIN-4-YLAMINO)-6-DIMETHYLAMINOHEXANAMIDE]
remaining activity at 2 µg/mL [2, 3]: 40 to 80%
